In patent US20250304596A1, “PYRAZINE DERIVATIVES AND USES THEREOF” (FOGHORN THERAPEUTICS INC., priority 2022, published 2025):

Tests used:
[1] = target: T1, HiBit-BRM fusion protein (Homo sapiens, UniProt P51531); experiment: HiBiT-BRM cell-based degradation assay (Nano-Glo HiBiT Lytic Detection, 24 h); conditions: stable HeLa cell line expressing HiBiT-BRM; for DC50: read-out: BRM HiBit Degradation IC50
T1 construct: expressed in transfected cells
Description: (§1) Procedure: A stable HeLa cell line expressing HiBiT-BRM was generated. On day 0, 5000 cells were seeded in 40 μL of media into each well of 384-well cell culture plates. On day 1, cells were treated with 120 nL DMSO or 120 nL of 3-fold serially DMSO-diluted compounds (10 points in duplicate with 30 μM as final top dose). Subsequently plates were incubated for 24 h in a standard tissue culture incubator and equilibrated at room temperature for 15 minutes. Nano-Glo HiBiT Lytic Detection System (Promega N3050) reagent was freshly prepared and 20 ul was added to each well. Upon addition of this LgBit-containing reagent, the HiBiT and LgBiT proteins associate to form the luminescent NanoBiT Iuciferase. The plates were shaken for 10 minutes at room temperature and the bioluminescence read using an EnVision plate reader (PerkinElmer).
(§2) The degradation % was calculated using the following formula: % degradation=100%-100%×(LumSample−LumLC)/(LumHC−LumLC). DMSO treated cells are employed as High Control (HC) and 2 μM of a known BRM/BRG1 degrader standard treated cells are employed as Low Control (LC).

[2] = target: T2, HiBit-BRG1 fusion protein (Homo sapiens, UniProt P51532); experiment: HiBiT-BRG1 cell-based degradation assay (Nano-Glo HiBiT Lytic Detection, 24 h); conditions: stable HeLa cell line expressing HiBit-BRG1 and LgBit; for Dmax: read-out: BRG1 HiBit Degradation Maximum (%); for DC50: read-out: BRMG1 HiBit Degradation IC50
T2 construct: expressed in transfected cells
Description: as §1
For measurement of BRG1 degradation, a stable HeLa cell line expressing HiBit-BRG1 and LgBit was generated. The same protocol as above was then followed.
as §2

T2 sequence (P51532 whole entry, the tested form may be a part): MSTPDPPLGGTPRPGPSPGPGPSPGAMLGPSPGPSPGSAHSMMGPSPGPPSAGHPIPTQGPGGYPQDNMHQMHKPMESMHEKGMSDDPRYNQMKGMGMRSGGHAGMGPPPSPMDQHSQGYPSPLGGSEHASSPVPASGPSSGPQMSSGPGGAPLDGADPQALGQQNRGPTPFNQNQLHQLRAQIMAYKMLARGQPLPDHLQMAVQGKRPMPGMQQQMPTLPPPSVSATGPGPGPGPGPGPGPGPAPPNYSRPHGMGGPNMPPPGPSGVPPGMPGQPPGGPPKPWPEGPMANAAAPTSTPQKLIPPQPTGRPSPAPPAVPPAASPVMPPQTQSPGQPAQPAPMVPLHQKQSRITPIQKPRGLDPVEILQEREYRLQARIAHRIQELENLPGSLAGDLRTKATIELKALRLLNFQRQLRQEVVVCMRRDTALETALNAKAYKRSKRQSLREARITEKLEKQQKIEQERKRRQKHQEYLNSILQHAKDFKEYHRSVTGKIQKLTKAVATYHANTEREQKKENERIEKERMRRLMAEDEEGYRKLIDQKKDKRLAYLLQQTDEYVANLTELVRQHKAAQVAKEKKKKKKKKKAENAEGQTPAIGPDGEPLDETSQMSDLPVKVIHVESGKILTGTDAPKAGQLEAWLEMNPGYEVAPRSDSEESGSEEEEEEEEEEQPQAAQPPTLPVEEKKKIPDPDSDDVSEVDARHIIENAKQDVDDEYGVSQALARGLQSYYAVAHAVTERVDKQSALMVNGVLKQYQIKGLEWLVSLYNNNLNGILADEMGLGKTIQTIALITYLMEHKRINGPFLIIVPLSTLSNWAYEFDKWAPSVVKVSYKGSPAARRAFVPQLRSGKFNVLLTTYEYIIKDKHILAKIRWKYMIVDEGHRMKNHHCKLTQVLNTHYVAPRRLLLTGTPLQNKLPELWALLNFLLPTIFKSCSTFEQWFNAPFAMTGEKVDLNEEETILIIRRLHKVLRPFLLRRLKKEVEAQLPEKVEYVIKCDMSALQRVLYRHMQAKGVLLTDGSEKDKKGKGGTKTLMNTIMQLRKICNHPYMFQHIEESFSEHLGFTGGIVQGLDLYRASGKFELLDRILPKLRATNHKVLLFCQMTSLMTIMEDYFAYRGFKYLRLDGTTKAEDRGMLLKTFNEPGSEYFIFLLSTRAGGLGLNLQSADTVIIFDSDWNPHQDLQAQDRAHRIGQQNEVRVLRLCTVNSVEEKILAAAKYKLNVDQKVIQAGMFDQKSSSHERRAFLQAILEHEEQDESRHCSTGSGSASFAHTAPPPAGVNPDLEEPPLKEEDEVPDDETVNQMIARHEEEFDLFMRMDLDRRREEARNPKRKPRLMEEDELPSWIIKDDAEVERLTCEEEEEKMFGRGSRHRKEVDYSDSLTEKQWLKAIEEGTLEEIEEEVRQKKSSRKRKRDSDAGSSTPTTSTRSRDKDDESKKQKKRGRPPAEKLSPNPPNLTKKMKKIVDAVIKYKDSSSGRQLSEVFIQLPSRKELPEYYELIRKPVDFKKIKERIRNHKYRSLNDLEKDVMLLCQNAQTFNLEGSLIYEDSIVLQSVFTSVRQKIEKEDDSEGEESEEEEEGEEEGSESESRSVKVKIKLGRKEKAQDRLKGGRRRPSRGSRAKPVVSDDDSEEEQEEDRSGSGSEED
T1 sequence (P51531 whole entry, the tested form may be a part): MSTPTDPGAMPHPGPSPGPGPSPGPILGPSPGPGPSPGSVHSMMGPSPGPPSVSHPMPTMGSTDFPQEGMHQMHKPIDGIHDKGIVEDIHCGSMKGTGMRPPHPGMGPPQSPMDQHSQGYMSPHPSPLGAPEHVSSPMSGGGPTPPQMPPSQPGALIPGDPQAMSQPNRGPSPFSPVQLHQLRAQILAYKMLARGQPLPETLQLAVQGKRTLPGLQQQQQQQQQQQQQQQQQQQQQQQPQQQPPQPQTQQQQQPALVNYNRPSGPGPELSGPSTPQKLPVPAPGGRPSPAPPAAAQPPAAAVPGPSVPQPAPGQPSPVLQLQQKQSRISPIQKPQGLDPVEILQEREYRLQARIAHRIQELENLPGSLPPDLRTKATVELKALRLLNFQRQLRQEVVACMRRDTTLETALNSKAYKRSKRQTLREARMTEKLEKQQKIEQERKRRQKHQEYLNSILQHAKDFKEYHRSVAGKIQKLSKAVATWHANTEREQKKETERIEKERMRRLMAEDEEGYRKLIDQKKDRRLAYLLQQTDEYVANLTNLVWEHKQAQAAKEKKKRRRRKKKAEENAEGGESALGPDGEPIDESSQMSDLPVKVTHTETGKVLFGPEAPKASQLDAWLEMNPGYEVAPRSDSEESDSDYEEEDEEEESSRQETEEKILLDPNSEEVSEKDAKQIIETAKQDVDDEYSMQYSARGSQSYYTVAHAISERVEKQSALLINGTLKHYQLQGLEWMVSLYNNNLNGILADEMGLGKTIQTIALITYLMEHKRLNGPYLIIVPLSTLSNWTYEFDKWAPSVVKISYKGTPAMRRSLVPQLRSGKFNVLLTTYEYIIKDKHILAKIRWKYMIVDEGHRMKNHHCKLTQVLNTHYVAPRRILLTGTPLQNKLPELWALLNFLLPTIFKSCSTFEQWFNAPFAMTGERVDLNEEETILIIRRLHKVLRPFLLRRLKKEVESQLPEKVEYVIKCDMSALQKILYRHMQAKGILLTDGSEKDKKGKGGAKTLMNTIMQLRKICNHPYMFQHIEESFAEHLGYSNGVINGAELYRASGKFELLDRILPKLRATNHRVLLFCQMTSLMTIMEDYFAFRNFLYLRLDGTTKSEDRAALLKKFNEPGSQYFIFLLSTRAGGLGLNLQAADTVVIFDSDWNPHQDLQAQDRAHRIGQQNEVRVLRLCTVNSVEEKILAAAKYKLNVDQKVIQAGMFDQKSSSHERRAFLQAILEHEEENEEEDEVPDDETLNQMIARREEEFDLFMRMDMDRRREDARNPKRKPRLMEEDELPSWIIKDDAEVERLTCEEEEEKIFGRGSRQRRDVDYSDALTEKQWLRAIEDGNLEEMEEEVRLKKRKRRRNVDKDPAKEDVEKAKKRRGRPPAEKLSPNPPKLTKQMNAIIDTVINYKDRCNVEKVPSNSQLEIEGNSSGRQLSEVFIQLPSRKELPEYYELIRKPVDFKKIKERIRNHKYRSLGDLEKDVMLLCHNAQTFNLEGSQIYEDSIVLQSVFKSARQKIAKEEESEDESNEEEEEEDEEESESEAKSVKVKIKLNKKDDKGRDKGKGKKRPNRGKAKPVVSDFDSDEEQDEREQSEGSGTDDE

DC50 [1] [nM]	Dmax [2] [%]	DC50 [2] [nM]	SMILES	BRM HiBit Degradation Maximum (%) [1]
< 10	< 50		Cc1ncsc1-c1ccc([C@H](C)NC(=O)[C@@H]2C[C@@H](O)CN2C(=O)[C@@H](c2cc(N3C[C@@H]4[C@H](C3)[C@H]4c3cc4nnc(-c5ccccc5O)cc4s3)no2)C(C)C)cc1 [Compound 70, (2S,4R)-4-hydroxy-1-((2R)-2-(3-((1R,5S)-6-(3-(2-hydroxyphenyl)thieno[3,2-c]pyridazin-6-yl)-3-azabicyclo[3.1.0]hexan-3-yl)isoxazol-5-yl)-3-methylbutanoyl)-N-((S)-1-(4-(4-methylthiazol-5-yl)phenyl)ethyl)pyrrolidine-2-carboxamide]	B (“B” indicates maximum degradation ≥50%)
< 10	< 50		Cc1nc(N2CC[C@H](c3sc4nnc(-c5ccccc5O)cc4c3C)C2)ccc1-c1cc([C@H](C(=O)N2C[C@H](O)C[C@H]2C(=O)N[C@@H](C)c2ccc(-c3scnc3C)cc2)C(C)C)on1 [Compound 95, (2S,4R)-4-hydroxy-1-((R)-2-(3-(6-((S)-3-(3-(2-hydroxyphenyl)-5-methylthieno[2,3-c]pyridazin-6-yl)pyrrolidin-1-yl)-2-methylpyridin-3-yl)isoxazol-5-yl)-3-methylbutanoyl)-N-((S)-1-(4-(4-methylthiazol-5-yl)phenyl)ethyl)pyrrolidine-2-carboxamide]	A (“A” indicates maximum degradation ≥75%)
> 10	< 50	> 1000	Cc1ncsc1-c1ccc([C@H](C)NC(=O)[C@@H]2C[C@@H](O)CN2C(=O)[C@@H](c2cc(N3CCN(c4ncc(-c5sc6nnc(-c7ccccc7O)cc6c5C)cn4)CC3)no2)C(C)C)cc1 (single isomer, unassigned) [Compound 31]	B (“B” indicates maximum degradation ≥50%)
> 10	< 50	> 1000	Cc1cc(-c2cc([C@H](C(=O)N3C[C@H](O)C[C@H]3C(=O)N[C@@H](C)c3ccc(-c4scnc4C)cc3)C(C)C)on2)ccc1N1CCC(c2sc3nnc(-c4ccccc4O)cc3c2C)CC1 (single isomer, unassigned) [Compound 3]	A (“A” indicates maximum degradation ≥75%)
< 10	> 50	> 10	Cc1ncsc1-c1ccc([C@H](C)NC(=O)[C@@H]2C[C@@H](O)CN2C(=O)[C@@H](c2cc(-c3cnc(N4CC[C@@H](c5cc6nnc(-c7ccccc7O)cc6s5)C4)nc3)no2)C(C)C)cc1 [Compound 82, (2S,4R)-4-hydroxy-1-((R)-2-(3-(2-((R)-3-(3-(2-hydroxyphenyl)thieno[3,2-c]pyridazin-6-yl)pyrrolidin-1-yl)pyrimidin-5-yl)isoxazol-5-yl)-3-methylbutanoyl)-N-((S)-1-(4-(4-methylthiazol-5-yl)phenyl)ethyl)pyrrolidine-2-carboxamide]	A (“A” indicates maximum degradation ≥75%)
> 10	< 50	> 1000	Cc1ncsc1-c1ccc([C@H](C)NC(=O)[C@@H]2C[C@@H](O)CN2C(=O)[C@@H](c2cc(-c3ncc(N4CCC(c5sc6nnc(-c7ccccc7O)cc6c5C)CC4)cn3)no2)C(C)C)cc1 [Compound 36, (2S,4R)-4-hydroxy-1-((R)-2-(3-(5-(4-(3-(2-hydroxyphenyl)-5-methylthieno[2,3-c]pyridazin-6-yl)piperidin-1-yl)pyrimidin-2-yl)isoxazol-5-yl)-3-methylbutanoyl)-N-((S)-1-(4-(4-methylthiazol-5-yl)phenyl)ethyl)pyrrolidine-2-carboxamide]	A (“A” indicates maximum degradation ≥75%)
< 10	> 50		Cc1nc(N2CCC(c3sc4nnc(-c5ccccc5O)cc4c3C)CC2)ncc1-c1cc([C@H](C(=O)N2C[C@H](O)C[C@H]2C(=O)N[C@@H](C)c2ccc(-c3scnc3C)cc2)C(C)C)on1 [Compound 93, (2S,4R)-4-hydroxy-1-((R)-2-(3-(2-(4-(3-(2-hydroxyphenyl)-5-methylthieno[2,3-c]pyridazin-6-yl)piperidin-1-yl)-4-methylpyrimidin-5-yl)isoxazol-5-yl)-3-methylbutanoyl)-N-((S)-1-(4-(4-methylthiazol-5-yl)phenyl)ethyl)pyrrolidine-2-carboxamide]	A (“A” indicates maximum degradation ≥75%)
< 10	< 50		Cc1ncsc1-c1ccc([C@H](C)NC(=O)[C@@H]2C[C@@H](O)CN2C(=O)[C@@H](c2cc(N3CC4(CC(c5sc6nnc(-c7ccccc7O)cc6c5C5CC5)C4)C3)no2)C(C)C)cc1 [Compound 87, (2S,4R)-1-[(2R)-2-(3-{6-[5-cyclopropyl-3-(2-hydroxyphenyl)thieno[2,3-c]pyridazin-6-yl]-2-azaspiro[3.3]heptan-2-yl}-1,2-oxazol-5-yl)-3-methylbutanoyl]-4-hydroxy-N-[(1S)-1-[4-(4-methyl-1,3-thiazol-5-yl)phenyl]ethyl]pyrrolidine-2-carboxamide]	A (“A” indicates maximum degradation ≥75%)
> 10	> 50	> 100	Cc1ncsc1-c1ccc([C@H](C)NC(=O)[C@@H]2C[C@@H](O)CN2C(=O)[C@@H](c2cc(-c3ccc(N4CC(c5cc6cc(-c7ccccc7O)nnc6s5)C4)nn3)no2)C(C)C)cc1 [Compound 24, (2S,4R)-4-hydroxy-1-((R)-2-(3-(6-(3-(3-(2-hydroxyphenyl)thieno[2,3-c]pyridazin-6-yl)azetidin-1-yl)pyridazin-3-yl)isoxazol-5-yl)-3-methylbutanoyl)-N-((S)-1-(4-(4-methylthiazol-5-yl)phenyl)ethyl)pyrrolidine-2-carboxamide]	A (“A” indicates maximum degradation ≥75%)
> 10	< 50	> 1000	Cc1ncsc1-c1ccc([C@H](C)NC(=O)[C@@H]2C[C@@H](O)CN2C(=O)[C@@H](c2cc(N3CCC4(CC3)CC(c3sc5nnc(-c6ccccc6O)cc5c3C)C4)no2)C(C)C)cc1 [Compound 45, (2S,4R)-4-hydroxy-1-((R)-2-(3-(2-(3-(2-hydroxyphenyl)-5-methylthieno[2,3-c]pyridazin-6-yl)-7-azaspiro[3.5]nonan-7-yl)isoxazol-5-yl)-3-methylbutanoyl)-N-((S)-1-(4-(4-methylthiazol-5-yl)phenyl)ethyl)pyrrolidine-2-carboxamide]	A (“A” indicates maximum degradation ≥75%)
> 1000	< 50	> 1000	Cc1ncsc1-c1ccc([C@H](C)NC(=O)[C@@H]2C[C@@H](O)CN2C(=O)[C@@H](c2cc(Oc3ccnc(N4CCC(c5sc6nnc(-c7ccccc7O)cc6c5C)CC4)n3)no2)C(C)C)cc1 (single isomer, unassigned) [Compound 62]	C (“C” indicates maximum degradation <50%)
> 10	< 50	> 1000	Cc1ncsc1-c1ccc([C@H](C)NC(=O)[C@@H]2C[C@@H](O)CN2C(=O)[C@@H](c2cc([C@H]3CC[C@@H](c4cnc(N5CCC(c6sc7nnc(-c8ccccc8O)cc7c6C)CC5)nc4)CC3)no2)C(C)C)cc1 (single isomer, unassigned) [Compound 65]	A (“A” indicates maximum degradation ≥75%)
< 10	< 50		Cc1ncsc1-c1ccc([C@H](C)NC(=O)[C@@H]2C[C@@H](O)CN2C(=O)[C@@H](c2cc(N3CC[C@@H](c4cc5nnc(-c6ccccc6O)cc5s4)C3)no2)C(C)C)cc1 [Compound 72, (2S,4R)-4-hydroxy-1-((R)-2-(3-((R)-3-(3-(2-hydroxyphenyl)thieno[3,2-c]pyridazin-6-yl)pyrrolidin-1-yl)isoxazol-5-yl)-3-methylbutanoyl)-N-((S)-1-(4-(4-methylthiazol-5-yl)phenyl)ethyl)pyrrolidine-2-carboxamide]	A (“A” indicates maximum degradation ≥75%)

SMILES	DC50 [1] [nM]	Dmax [2] [%]	DC50 [2] [nM]	BRM HiBit Degradation Maximum (%) [1]
Cc1ncsc1-c1ccc([C@H](C)NC(=O)[C@@H]2C[C@@H](O)CN2C(=O)[C@@H](c2cc(-c3cnc(N4C[C@H]5C[C@@H](C4)[C@H]5c4cc5cc(-c6ccccc6O)nnc5s4)nc3)no2)C(C)C)cc1 [Compound 15, (2S,4R)-4-hydroxy-1-((R)-2-(3-(2-((1R,5S,6S)-6-(3-(2-hydroxyphenyl)thieno[2,3-c]pyridazin-6-yl)-3-azabicyclo[3.1.1]heptan-3-yl)pyrimidin-5-yl)isoxazol-5-yl)-3-methylbutanoyl)-N-((S)-1-(4-(4-methylthiazol-5-yl)phenyl)ethyl)pyrrolidine-2-carboxamide]	> 100	< 50	> 1000	B (“B” indicates maximum degradation ≥50%)
